Laboratory results published in patent publication US20040006136A1, “Anthelmintics for preventing parasitic infections in human and animals” (priority 2000, published 2004).

Columns and labels:
[1] = test system: cercariae of Schistosoma mansoni; details: topical agent; Salafsky et al. 1998; cited from earlier work
[2] = test system: cercariae of Schistosoma mansoni; details: topical, monkeys; Bruce et al. 1992; cited from earlier work
[3] = test system: Schistosoma mansoni cercariae; test: Activity against Schistosoma mansoni cercariae (survival/mobility in water); format: cell-based; details: 500 μl/l final concentration of the active compound; PEG300/aquarium water; test period of 120 minutes
Description: Activity Against Schistosoma mansoni cercariae
[500 μl/l Final Concentration of the Active Compounds]
Snails (Biomphalaria glabrata) were infected by incubating each of them with 8 miracidia in 10 ml of water overnight. About 6 to 9 weeks after the infection, cercariae were obtained by irradiating the snails, which had been kept in darkness, with light, followed by collection of the swarming cercariae within 2 hours.
Such an amount of cercariae-containing water (1 or 2 ml, see below) was added to the test batches that each batch contained about 100 to 150 cercariae.
5 μl of active compound were mixed thoroughly with 25 μl of PEG300. 9 ml of aquarium water was then added, and the batch was shaken vigorously. After (delayed) addition of 1 ml of cercariae suspension, survival of the cercariae was in each case observed immediately using a stereomagnifier.

[4] = test system: cercariae of Schistosoma mansoni; details: Fripp and Armstrong 1973; cited from earlier work

**Q.** Which “action against cercariae of Schistosoma mansoni” value [1] does the source give for `CCN(CC)C(=O)c1cccc(C)c1` [N,N-Diethyl-m-toluamide (DEET), N,N-Diethyl-m-toluamide] here?
**A.** acts against cercariae

**Q.** Which “action against the penetration of cercariae” value [2] does the source give for `O=C(Nc1ccc([N+](=O)[O-])cc1Cl)c1cc(Cl)ccc1O` [Niclosamide] here?
**A.** acts against the penetration of cercariae

**Q.** With `CCCCOC(=O)CN(CCCC)C(C)=O` as the compound, how does the “activity of the active compounds against cercariae (classification 0-3)” value [3] read?
**A.** 1

**Q.** Which “effect on cercariae of Schistosoma mansoni” value [4] does the source give for `Oc1c(Cl)cc(Cl)c(Cl)c1Cc1c(O)c(Cl)cc(Cl)c1Cl` [hexachlorophene] here?
**A.** lethal effect
